# Source: US20210077529A1, “T-CELL EXHAUSTION, METHODS & COMPOSITIONS RELATING THERETO” (MEMORIAL SLOAN KETTERING CANCER CENTER, priority 2018, published 2021)
# “Also recorded” adds a separate entry of the source.
# Legend:
# Format in all cases: cell-based, mouse
# [1] = system: tumor cells expressing specific antigen; experiment: Killing of tumor cells expressing specific antigen by chronically stimulated T-cells (co-culture)
# Protocol: (§1) FIG. 14A-D. N-acetylcysteine reverses endogenous T-cell exhaustion. Isolated CD3+ T cells were stimulated acutely or chronically as described elsewhere herein in the without anti-PD-L1 (FIG. 14A) or in presence or absence of anti-PD-L1 (FIG. 14B) and/or N-acetylcysteine (10 mM) (FIG. 14C). Following 8 days of culture, cells were re-stimulated for cytokine production (above) or co-cultured with tumor cells expressing specific antigen.
# Ultimately, the hallmark of T-cell exhaustion in the context of both chronic viral infections and cancer requires a loss of effector function, defined as the absence of target cell killing. Therefore, it was imperative to establish that exhausted cells generated using this in vitro system were not able to kill target cells. […] 24 hours later luminescence was measured using a luminometer. Killing efficacy was determined by luminescence relative to B16 cells co-cultured with T-cells in the absence of specific peptide.
# The in vitro system that developed and described herein allowed for metabolic evaluations that led directly to the identification of oxidative stress as a hallmark of T-cell exhaustion. We therefore evaluated whether adding N-acetylcysteine (10 mM) to T-cell media every 48 hours during days 2-8 of chronic stimulation would be sufficient to reverse the effects of chronic stimulation on T-cell growth and effector function. […]
# exhausted CAR-T cells [2] = experiment: Proliferative capacity of exhausted CD19-specific CAR-T cells isolated from lymphoma-bearing mice; details: exhausted CD19 CAR-T cells isolated 14 days after transfer into A20 lymphoma mice; 10 mM in culture media
# From the text: (§2) FIG. 15A-C N-acetylcysteine reverses CAR-T cell exhaustion. Exhausted CAR-T cells were generated by transferring CD19-specific CAR-T cells into mice bearing CD19-expressing A20 lymphoma cells. After 14 days, CAR-T cells were isolated from mouse spleens and interrogated for proliferative capacity, oxidative stress, and cytokine production. […] The in vitro system that developed and described herein allowed for metabolic evaluations that led directly to the identification of oxidative stress as a hallmark of T-cell exhaustion. We therefore evaluated whether adding N-acetylcysteine (10 mM) to T-cell media every 48 hours during days 2-8 of chronic stimulation would be sufficient to reverse the effects of chronic stimulation on T-cell growth and effector function. […] FIGS. 12-16. Moreover, this strategy was also effective in reversing the exhaustion of chimeric antigen receptor (CAR) T-cells. For this assay, T-cells retrovirally infected to express a chimeric antigen receptor targeting CD19 were adoptively transferred into mice who had previously received A20 B-cell lymphoma cells. This protocol is known to generate “exhausted” CAR T-cells by Day 14 following CAR T-cell transfer. […] FIG. 16. To determine this, T-cells that had been acutely or chronically stimulated in the presence or absence of 10 mM N-acetylcysteine were assessed for Tcf7 expression via real-time quantitative PCR. […]
# [3] = system: chronically stimulated T-cells; experiment: Proliferation of chronically stimulated T-cells (polyclonal in vitro exhaustion model, Coulter counter counts); details: CD3+ T cells, chronic anti-CD3/anti-CD28 stimulation days 2-8, 10 mM N-acetylcysteine
# Protocol: FIG. 13A-B. N-acetylcysteine restores proliferation of chronically stimulated T-cells. FIG. 13A—schematic representation of model/method. Isolated CD3+ T cells were stimulated for 2 days with plate-bound anti-CD3 and anti-CD28. Following 2-day stimulation, cells were either incubated in IL-2 alone or serially re-plated on plates coated with anti-CD3 and anti-CD28 every 2 days for an additional 6 days in the presence or absence of 10 mM N-acetylcysteine. Cells were counted every 2 days using a Coulter counter. […] FIG. 3A and FIG. 3F provide schematic representations of a polyclonal T cell exhaustion model in which a generalized TCR and CD28 stimulus is used. Utilizing a generalized TCR and CD28 stimulus has multiple advantages. […] We therefore evaluated whether adding N-acetylcysteine (10 mM) to T-cell media every 48 hours during days 2-8 of chronic stimulation would be sufficient to reverse the effects of chronic stimulation on T-cell growth and effector function. […] To determine this, T-cells that had been acutely or chronically stimulated in the presence or absence of 10 mM N-acetylcysteine were assessed for Tcf7 expression via real-time quantitative PCR. […]
# [4] = system: chronically stimulated T-cells; experiment: Intracellular ophthalmate levels in chronically stimulated T-cells (LC-MS); details: chronically stimulated CD3+ T cells, 8 days, 10 mM N-acetylcysteine
# Protocol: FIG. 18A-C. Ophthalmate is a biomarker for oxidative stress in exhausted T-cells and is reversed by N-acetylcysteine. Isolated CD3+ T cells were stimulated acutely or chronically as described herein in the presence or absence of N-acetylcysteine (10 mM). After 8 days, cells were analyzed for intracellular ophthalmate levels by LC-MS. […] Ophthalmate levels were higher in chronically stimulated T-cells (FIG. 18B) and this was reversed by administration of N-acetylcysteine (FIG. 18C).
# Tcf7 = Tcf7 expression in chronically stimulated T-cells (real-time quantitative PCR); details: chronically stimulated CD3+ T cells, 8 days, 10 mM N-acetylcysteine
# From the text: FIG. 16A-B. N-acetylcysteine restores T-cell memory. Isolated CD3+ T cells were stimulated acutely or chronically as described herein. […] Tumor-infiltrating T-cells from patients with melanoma who received checkpoint inhibitors were extracted and analyzed by single-cell RNA-seq. […] The in vitro system that developed and described herein allowed for metabolic evaluations that led directly to the identification of oxidative stress as a hallmark of T-cell exhaustion. We therefore evaluated whether adding N-acetylcysteine (10 mM) to T-cell media every 48 hours during days 2-8 of chronic stimulation would be sufficient to reverse the effects of chronic stimulation on T-cell growth and effector function. […] FIGS. 12-16. Moreover, this strategy was also effective in reversing the exhaustion of chimeric antigen receptor (CAR) T-cells. For this assay, T-cells retrovirally infected to express a chimeric antigen receptor targeting CD19 were adoptively transferred into mice who had previously received A20 B-cell lymphoma cells. This protocol is known to generate “exhausted” CAR T-cells by Day 14 following CAR T-cell transfer. […] FIG. 16. To determine this, T-cells that had been acutely or chronically stimulated in the presence or absence of 10 mM N-acetylcysteine were assessed for Tcf7 expression via real-time quantitative PCR. […]
# exhausted CAR-T cells [5] = experiment: Cytokine production of exhausted CAR-T cells; details: exhausted CD19 CAR-T cells isolated 14 days after transfer; 10 mM
# From the text: as §2
# [6] = system: chronically stimulated T-cells; experiment: Cytokine production of chronically stimulated T-cells after re-stimulation (flow cytometry); details: CD3+ T cells, 8 days of culture, N-acetylcysteine 10 mM
# Protocol: as §1
# The expression of the inhibitory receptors PD-1, LAG-3, and PD-L1 and the effector cytokines IFNγ, TNFα and IL2 was analyzed by flow cytometry. Briefly, cells that were stimulated acutely or chronically for 8 days as described herein were re-stimulated after overnight rest using 50 ng/mL phorbol myristate acetate (PMA) and 500 ng/mL ionomycin. […]
# The in vitro system that developed and described herein allowed for metabolic evaluations that led directly to the identification of oxidative stress as a hallmark of T-cell exhaustion. We therefore evaluated whether adding N-acetylcysteine (10 mM) to T-cell media every 48 hours during days 2-8 of chronic stimulation would be sufficient to reverse the effects of chronic stimulation on T-cell growth and effector function. […] To determine this, T-cells that had been acutely or chronically stimulated in the presence or absence of 10 mM N-acetylcysteine were assessed for Tcf7 expression via real-time quantitative PCR. […]
# exhausted CAR-T cells [7] = experiment: Oxidative stress (reactive oxygen species) in exhausted CAR-T cells; details: exhausted CD19 CAR-T cells isolated 14 days after transfer, re-stimulated with anti-CD3 and anti-CD28; 10 mM
# From the text: as §2
smiles,measurement,setting,value
CC(=O)N[C@@H](CS)C(=O)O [N-acetylcysteine],anti-PD-1 responsiveness of chronically stimulated T-cells,[1]; 10 mM N-acetylcysteine every 48 hours during days 2-8 of chronic stimulation,fully restored
same,tumor / target cell killing by chronically stimulated T-cells,"[1]; 8 days of culture, co-cultured with tumor cells expressing specific antigen, N-acetylcysteine 10 mM",effectively reversed; also recorded: fully restored
same,CAR-T cell proliferation,exhausted CAR-T cells [2],enhanced CAR-T cell proliferation; also recorded: allowed CAR T-cells to proliferate
same,T-cell proliferation under chronic stimulation,[3],fully reverses the impairment in proliferation; also recorded: fully reverse
same,intracellular ophthalmate levels,[4],reversed
same,Tcf7 expression (memory marker),Tcf7,restored Tcf7 expression; also recorded: largely restored
same,CAR-T cell cytokine production,exhausted CAR-T cells [5],enhanced; also recorded: allowed CAR T-cells to proliferate and produce cytokine
same,cytokine production of chronically stimulated T-cells,[6],effectively reversed; also recorded: fully reverse
same,oxidative stress (reactive oxygen species) in CAR-T cells,exhausted CAR-T cells [7],reducing oxidative stress; also recorded: could be reversed
